Source: the CombiSolv-Exp solvation set (Vermeire and Green 2021)
Each block holds one compound with its values, some of them ahead of it.

Assay: solvent given as SMILES
[1] = in CCCCCCCCC=CCCCCCCCC(=O)OCC(COC(=O)CCCCCCCC=CCCCCCCCC)OC(=O)CCCCCCCC=CCCCCCCCC

- solvation free energy, 298 K (in O): -3.43 kcal/mol
Structure (SMILES): CCCCCC=CC=O

- solvation free energy, 298 K (in O): -2.73 kcal/mol
Structure (SMILES): CCCC(=O)OCCC(C)CCC=C(C)C (centres undefined)

- solvation free energy, 298 K (in CC(C)c1ccccc1): -4.1 kcal/mol
- solvation free energy, 298 K (in CCc1ccccc1): -4.58 kcal/mol
- solvation free energy, 298 K (in O): -10.2 kcal/mol
Structure (SMILES): NC=O

Structure (SMILES): Oc1c(Cl)c(Cl)c(Cl)c(Cl)c1Cl
- solvation free energy, 298 K [1]: -10.3 kcal/mol
- solvation free energy, 298 K (in O): -4.99 kcal/mol

Structure (SMILES): Clc1ccc2c(c1)Oc1ccc(Cl)cc1O2
- solvation free energy, 298 K (in O): -3.67 kcal/mol

- solvation free energy, 298 K (in O): 1.13 kcal/mol
Structure (SMILES): CC(C)C1CCC2(C)C3CC4C(C13)C42C (centres undefined)

Structure (SMILES): CCCCCCCCCCCCCCCCO
- solvation free energy, 298 K (in CC(C)O): -13.7 kcal/mol
- solvation free energy, 298 K (in CCC(C)=O): -13.8 kcal/mol
- solvation free energy, 298 K [1]: -11.6 kcal/mol
- solvation free energy, 298 K (in CCCCCCCCCCO): -13.4 kcal/mol
- solvation free energy, 298 K (in CCCCCCCCO): -13.5 kcal/mol
- solvation free energy, 298 K (in CCCCCCO): -13.6 kcal/mol
- solvation free energy, 298 K (in CCCCOCCCC): -13.1 kcal/mol
- solvation free energy, 298 K (in CCOCC): -13.5 kcal/mol
- solvation free energy, 298 K (in O): -2.76 kcal/mol

Structure (SMILES): c1ccc2c(c1)CCCC2
- solvation free energy, 298 K (in CCC(C)=O): -7.43 kcal/mol
- solvation free energy, 298 K (in CCCCCCC): -7.03 kcal/mol
- solvation free energy, 298 K (in CCO): -6.29 kcal/mol
- solvation free energy, 298 K (in O=Cc1ccco1): -7.02 kcal/mol
- solvation free energy, 298 K (in OCCO): -4.97 kcal/mol
- solvation free energy, 298 K (in OCCOCCO): -5.9 kcal/mol
- solvation free energy, 298 K (in OCCOCCOCCO): -6.07 kcal/mol

- solvation free energy, 298 K (in O): -5.45 kcal/mol
Structure (SMILES): CCc1cnccn1

Structure (SMILES): C=CC#N
- solvation free energy, 298 K (in O): -3.34 kcal/mol

- solvation free energy, 298 K (in C=CCCCCCCCCCCCCCC): -3.86 kcal/mol
- solvation free energy, 298 K (in O): 0.61 kcal/mol
Structure (SMILES): CC=CC=CC

- solvation free energy, 298 K (in O): -1.08 kcal/mol
Structure (SMILES): C=C1CCC(C(C)C)c2cc(C)ccc21 (centres undefined)

Structure (SMILES): Cc1[nH]c(=O)n(C(C)(C)C)c(=O)c1Cl
- solvation free energy, 298 K (in O): -11.1 kcal/mol

- solvation free energy, 298 K (in O): -4.39 kcal/mol
Structure (SMILES): CCCC(=O)CC(C)=O

- solvation free energy, 298 K (in O): -1.5 kcal/mol
Structure (SMILES): CCOC(C)(C)CC

- solvation free energy, 298 K (in O): -0.5 kcal/mol
Structure (SMILES): C=CC(C)=CCC=C(C)C

Structure (SMILES): FCCF
- solvation free energy, 298 K (in CCCO): -3.64 kcal/mol

- solvation free energy, 298 K (in O): -2.99 kcal/mol
Structure (SMILES): CC(=O)OCCC(C)CCC=C(C)C (centres undefined)

- solvation free energy, 298 K (in O): 0.78 kcal/mol
Structure (SMILES): CC1CCC2=C1CC1CCC2(C)C1(C)C (centres undefined)

- solvation free energy, 298 K (in O): -3.25 kcal/mol
Structure (SMILES): CC(=O)OC1(C(C)C)CC=C(C)CC1 (centres undefined)

Structure (SMILES): CCCCCCI
- solvation free energy, 298 K (in O): 0.08 kcal/mol

- solvation free energy, 298 K (in O): -2.53 kcal/mol
Structure (SMILES): CC1CCC(C(C)C)C(=O)C1 (centres undefined)

Structure (SMILES): CC(C)CO[N+](=O)[O-]
- solvation free energy, 298 K (in O): -1.88 kcal/mol

- solvation free energy, 298 K (in O): -6.02 kcal/mol
Structure (SMILES): CCNCc1ccc(C)cc1

- solvation free energy, 298 K (in O): -1.39 kcal/mol
Structure (SMILES): Cc1ccc(Br)cc1

- solvation free energy, 298 K (in O): -12.7 kcal/mol
- solvation free energy, 298 K (in O=C1CCCCC1): -12.1 kcal/mol
Structure (SMILES): O=C(O)CCCC(=O)O

- solvation free energy, 298 K (in O): -4.42 kcal/mol
Structure (SMILES): COC(OC)OC

- solvation free energy, 298 K (in CC(C)O): -9.77 kcal/mol
- solvation free energy, 298 K (in CCCCCC): -7.69 kcal/mol
- solvation free energy, 298 K (in CCCCCCCC): -7.87 kcal/mol
- solvation free energy, 298 K (in CCCCCCCCCO): -9.64 kcal/mol
- solvation free energy, 298 K (in CCCO): -9.73 kcal/mol
- solvation free energy, 298 K (in O): -3.69 kcal/mol
Structure (SMILES): CCCCCCCCCCO

- solvation free energy, 298 K (in O): 0 kcal/mol
Structure (SMILES): CCCCCCCl

Structure (SMILES): COc1ccc(CCN)cc1
- solvation free energy, 298 K (in C=CCCCCCCC=C): -9.4 kcal/mol
- solvation free energy, 298 K (in O): -8.51 kcal/mol

Structure (SMILES): O=[N+]([O-])c1ccccc1O
- solvation free energy, 298 K (in CC(C)CC(C)(C)C): -6.5 kcal/mol
- solvation free energy, 298 K (in CCCCCC): -6.48 kcal/mol
- solvation free energy, 298 K (in CCCCCCC): -6.49 kcal/mol
- solvation free energy, 298 K (in CCCCCCCC): -6.49 kcal/mol
- solvation free energy, 298 K (in CCCCCCCCCC): -6.47 kcal/mol
- solvation free energy, 298 K (in Cc1cccc(C)c1): -7.73 kcal/mol
- solvation free energy, 298 K (in O): -4.58 kcal/mol

Structure (SMILES): CC(C)CCO
- solvation free energy, 298 K (in Brc1ccccc1): -5.27 kcal/mol
- solvation free energy, 298 K (in C1CCOC1): -6.32 kcal/mol
- solvation free energy, 298 K (in CC#N): -5.58 kcal/mol
- solvation free energy, 298 K (in CC(C)O): -6.51 kcal/mol
- solvation free energy, 298 K (in CCCCCC): -4.05 kcal/mol
- solvation free energy, 298 K (in CCCCCCC): -3.96 kcal/mol
- solvation free energy, 298 K (in CCCCCCCC): -3.98 kcal/mol
- solvation free energy, 298 K (in CCCCCCCCCCO): -6.18 kcal/mol
- solvation free energy, 298 K (in CCCCCCCCO): -6.08 kcal/mol
- solvation free energy, 298 K (in CCCCOC(C)=O): -5.78 kcal/mol
- solvation free energy, 298 K (in CO): -6.77 kcal/mol
- solvation free energy, 298 K (in Cc1ccc(C)cc1): -4.93 kcal/mol
- solvation free energy, 298 K (in Cc1cccc(C)c1): -4.93 kcal/mol
- solvation free energy, 298 K (in Cc1ccccc1C): -4.94 kcal/mol
- solvation free energy, 298 K (in Clc1ccccc1): -5.13 kcal/mol
- solvation free energy, 298 K (in O): -4.41 kcal/mol
- solvation free energy, 298 K (in [2H]O[2H]): -4.43 kcal/mol
